Among the test systems are A498; SR; UACC-62; SF-539; SK-MEL-28; COLO 205; ACHN; K562; HCT-15; HOP-92; SK-MEL-5; RPMI-8226; CCRF-CEM; MDA-MB-435; PC-3; HT-29; IGROV-1; RXF 393; SNB-19; SK-MEL-2.
Holding throughout (assay): NCI anticancer screen, dose series, 48 h

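Assay format: 96-well plates, 48-hour exposure. GI50: concentration for 50% inhibition of growth.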 Calls of active or inactive are those of the source. Cut-off read from the data, not from the text of the source: active = GI50 up to about 1.1 µM and inactive = higher. Where only a bound is given, the exact number is not on record here.

Regarding `CC(=O)c1ccc2c(c1)CC1(C2)Cc2cc3c(c(C(=O)O)c2C1)CCC3` (stereo not drawn), the GI50 in the assay on A498 is > 100 µM (inactive); in the assay on SR, 71.6 µM (inactive); with UACC-62 it was 72.1 µM (inactive); in the assay on SF-539 it was > 100 µM (inactive); in the assay on SK-MEL-28, > 100 µM (inactive); in the assay with COLO 205 it was 53.1 µM (inactive). The GI50 is 68.1 µM (inactive) in the assay with ACHN; 72.4 µM (inactive) in the assay with K562; more than 100 µM in the assay on HCT-15; 22.6 µM (inactive) with HOP-92; 44.6 µM (inactive) with SK-MEL-5; 63.7 µM (inactive) in the assay on RPMI-8226. Besides, the GI50 was 81.8 µM (inactive) with CCRF-CEM; > 100 µM (inactive) in the assay with MDA-MB-435; > 100 µM (inactive) with PC-3; > 100 µM (inactive) in the assay on HT-29; > 100 µM (inactive) with IGROV-1; > 100 µM (inactive) with RXF 393.

As for `COc1ccc2c(c1)CCc1c-2n(CCN(C)C)c2ccc(OC)cc12`, the GI50 in the assay with A498 is 17.6 µM (inactive); in the assay with SR, 3.95 µM (inactive); with UACC-62, 9.42 µM (inactive); in the assay with SK-MEL-28 it was 9.48 µM (inactive); with COLO 205, 4.38 µM (inactive); in the assay with SNB-19, 11.6 µM (inactive). For the same compound, the GI50 in the assay on ACHN is 14.2 µM (inactive); in the assay on K562 it was 3.77 µM (inactive); in the assay with HCT-15 it was 11.4 µM; in the assay with HOP-92, 94.2 µM (inactive); in the assay with SK-MEL-5 it was 12.4 µM (inactive); in the assay on RPMI-8226, 4.92 µM (inactive). The GI50 was 2.38 µM (inactive) in the assay on CCRF-CEM; 6.32 µM (inactive) in the assay on MDA-MB-435; 12.1 µM (inactive) in the assay on PC-3; 3.44 µM (inactive) in the assay on HT-29; 18.5 µM (inactive) in the assay with SK-MEL-2; 18.7 µM (inactive) in the assay on IGROV-1.

In the case of `O=C(c1ccc(Cl)cc1Cl)N(C(=O)N1CCC(c2ccccc2)CC1)c1ccccc1`, the GI50 is 97.7 µM (inactive) in the assay with A498; 24.3 µM (inactive) with SR; 79.4 µM (inactive) with UACC-62; > 100 µM (inactive) in the assay with SF-539; > 100 µM (inactive) in the assay on SK-MEL-28; 43.3 µM (inactive) in the assay with COLO 205. Further, the GI50 was > 100 µM (inactive) in the assay with SNB-19; > 100 µM (inactive) in the assay with ACHN; 34.4 µM (inactive) in the assay on K562; more than 100 µM in the assay on HCT-15; > 100 µM (inactive) with HOP-92; 37.3 µM (inactive) in the assay on SK-MEL-5. Also, the GI50 in the assay with RPMI-8226 was 47.9 µM (inactive); in the assay on CCRF-CEM it was 13.8 µM (inactive); in the assay with MDA-MB-435, 55 µM (inactive); in the assay on PC-3 it was 91.2 µM (inactive); in the assay with HT-29, > 100 µM (inactive); with SK-MEL-2, > 100 µM (inactive). The GI50 with IGROV-1 is 92.9 µM (inactive).

`CC1CC(C)C(O)C(C2CC(CC(=O)NC3CCCCC3)CC(=O)O2)C1` (stereo not drawn): the GI50 in the assay with A498, in the assay on SR, in the assay with SF-539, in the assay on SK-MEL-28, in the assay on COLO 205 and with SNB-19 was > 100 µM (inactive) in each case. Besides, the GI50 with ACHN was > 100 µM (inactive); in the assay with K562, > 100 µM (inactive); in the assay with HCT-15 it was more than 100 µM; with HOP-92 it was > 100 µM (inactive); in the assay on SK-MEL-5 it was > 100 µM (inactive); with RPMI-8226 it was > 100 µM (inactive). The GI50 in the assay on CCRF-CEM, in the assay on MDA-MB-435, with PC-3, in the assay with HT-29, in the assay with IGROV-1 and in the assay with RXF 393 was > 100 µM (inactive) in each case.

As to `CC1(C)N=c2c(ncn2CCO)=C(C(N)=O)N1`, the GI50 in the assay on A498, in the assay on SR, in the assay on UACC-62, in the assay with SF-539, in the assay with SK-MEL-28 and in the assay on COLO 205 was > 100 µM (inactive) throughout. Moreover, the GI50 was > 100 µM (inactive) in the assay on SNB-19; > 100 µM (inactive) with ACHN; > 100 µM (inactive) in the assay on K562; more than 100 µM in the assay on HCT-15; 26.2 µM (inactive) in the assay with HOP-92; > 100 µM (inactive) in the assay with SK-MEL-5. The GI50 in the assay on RPMI-8226, with CCRF-CEM, in the assay with MDA-MB-435, with PC-3, with HT-29 and in the assay with IGROV-1 was > 100 µM (inactive) in each case. In the assay on RXF 393, the GI50 was > 100 µM (inactive).

In the case of `Oc1c(Br)cc(CN(Cc2cc(Br)c(O)c(Br)c2)C2CCCCC2)cc1Br`, the GI50 in the assay on A498, in the assay on SR, in the assay on UACC-62, in the assay with SK-MEL-28, in the assay on COLO 205 and in the assay with SNB-19 was > 100 µM (inactive) each time. Further, the GI50 in the assay with ACHN was > 100 µM (inactive); in the assay on K562 it was > 100 µM (inactive); in the assay with HCT-15, more than 100 µM; in the assay on HOP-92 it was > 100 µM (inactive); with SK-MEL-5, > 100 µM (inactive); with RPMI-8226 it was > 100 µM (inactive). For the same compound, the GI50 in the assay on CCRF-CEM, in the assay on MDA-MB-435, with PC-3, with HT-29, in the assay with SK-MEL-2 and with IGROV-1 was > 100 µM (inactive) in each case. Also, the GI50 with RXF 393 was > 100 µM (inactive).

Turning to `Cc1cnc2nc(-c3ccc(Cl)cc3)cc(O)c2c1`, the GI50 in the assay with A498 is 5.48 µM (inactive); in the assay with SR, 0.598 µM (active); with UACC-62, 5.5 µM (inactive); in the assay on SF-539 it was 2.37 µM (inactive); in the assay with SK-MEL-28, > 22.9 µM (inactive); in the assay with COLO 205, 4.31 µM (inactive). For the same compound, the GI50 was 5.35 µM (inactive) in the assay on SNB-19; 6.21 µM (inactive) in the assay with ACHN; 1.07 µM (active) in the assay with K562; 2.07 µM with HCT-15; 2.32 µM (inactive) with HOP-92; 2.49 µM (inactive) in the assay on SK-MEL-5. Further, the GI50 in the assay with RPMI-8226 is 3.88 µM (inactive); in the assay with CCRF-CEM it was 4.44 µM (inactive); in the assay on MDA-MB-435, 0.47 µM (active); in the assay with PC-3 it was 2.12 µM (inactive); in the assay on HT-29 it was 3.27 µM (inactive); with SK-MEL-2, 5.82 µM (inactive). The GI50 in the assay on IGROV-1 was 5.66 µM (inactive).

`CC(=C(C(N)=O)C(N)=O)C1C=C(c2cccs2)CC(c2ccc(Cl)cc2)=C1O` (stereo not drawn): the GI50 is 21.5 µM (inactive) in the assay on A498; 31 µM (inactive) in the assay with SR; 25.1 µM (inactive) in the assay on UACC-62; > 100 µM (inactive) in the assay with SK-MEL-28; 42 µM (inactive) in the assay on COLO 205; 77.8 µM (inactive) in the assay with SNB-19. Also, the GI50 is 52.5 µM (inactive) in the assay on ACHN; 25 µM (inactive) with K562; 20.9 µM in the assay on HCT-15; 85.9 µM (inactive) with HOP-92; 20.3 µM (inactive) in the assay on SK-MEL-5; 20.4 µM (inactive) with RPMI-8226. In addition, the GI50 is 26.2 µM (inactive) in the assay with CCRF-CEM; 42.2 µM (inactive) with MDA-MB-435; 9.55 µM (inactive) with PC-3; 39.8 µM (inactive) with HT-29; > 100 µM (inactive) in the assay on SK-MEL-2; 35 µM (inactive) in the assay with IGROV-1. Also, in the assay on RXF 393, the GI50 is > 100 µM (inactive).

As to `CCC1c2[nH]c3ccccc3c2C[C@H]2C(=O)NC(CCCCNC(=O)OC(C)(C)C)C(=O)N12` (stereo partly drawn), the GI50 was 52.8 µM (inactive) in the assay with A498; 24.8 µM (inactive) in the assay on SR; 20.5 µM (inactive) in the assay on UACC-62; 41.1 µM (inactive) with SK-MEL-28; 29.9 µM (inactive) in the assay with COLO 205; 44.2 µM (inactive) in the assay with SNB-19. In addition, the GI50 in the assay with ACHN was 35.9 µM (inactive); in the assay with K562 it was 35.8 µM (inactive); in the assay on HCT-15, 31 µM; with HOP-92 it was 34 µM (inactive); with SK-MEL-5, 20.7 µM (inactive); in the assay on RPMI-8226 it was 24.5 µM (inactive). In addition, the GI50 with MDA-MB-435 is 20.5 µM (inactive); in the assay with PC-3, 22.7 µM (inactive); in the assay with HT-29, 30.5 µM (inactive); with SK-MEL-2 it was 26.6 µM (inactive); in the assay with IGROV-1 it was 36.1 µM (inactive); in the assay on RXF 393, 30.5 µM (inactive).

For `O=C1/C(=N/c2ccc(Nc3ccccc3)cc2)Oc2ccccc21`, the GI50 in the assay on A498 is 5.69 µM (inactive); in the assay on SR it was 2.15 µM (inactive); in the assay with UACC-62 it was 3.28 µM (inactive); in the assay on SF-539, 3.27 µM (inactive); with SK-MEL-28 it was 4.19 µM (inactive); in the assay with COLO 205, 1.65 µM (inactive). Also, the GI50 in the assay on SNB-19 was 2.36 µM (inactive); in the assay with ACHN, 3.18 µM (inactive); in the assay with K562, 2.93 µM (inactive); in the assay with HCT-15, 3.3 µM; with SK-MEL-5, 4.68 µM (inactive); in the assay with CCRF-CEM, 1.86 µM (inactive). Moreover, the GI50 was 1.82 µM (inactive) with MDA-MB-435; 2.81 µM (inactive) in the assay with PC-3; 2.2 µM (inactive) with HT-29; 3.3 µM (inactive) with SK-MEL-2; 3.06 µM (inactive) in the assay with IGROV-1; 2.51 µM (inactive) in the assay on RXF 393.

Take `O=C1CCc2ccccc2O1` [DIHYDROCOUMARIN]: the GI50 with A498, in the assay on SR, in the assay with UACC-62, in the assay on SK-MEL-28, with COLO 205 and with SNB-19 was > 100 µM (inactive) throughout. For the same compound, the GI50 in the assay with ACHN was > 100 µM (inactive); in the assay with K562, > 100 µM (inactive); in the assay on HCT-15, more than 100 µM; in the assay on HOP-92 it was > 100 µM (inactive); in the assay on RPMI-8226 it was > 100 µM (inactive); in the assay with CCRF-CEM, > 100 µM (inactive). In addition, the GI50 with MDA-MB-435, in the assay with PC-3, in the assay with HT-29, in the assay on SK-MEL-2, with IGROV-1 and in the assay with RXF 393 was > 100 µM (inactive) each time.

(Values after ChEMBL document CHEMBL1201862, “PubChem BioAssay data set” (2004).)
